The text below walks through data of US20040102522A1, “Dosage form of sodium ibuprofen” (priority 2002, published 2004).

The nature of this data set: Water uptake (hygroscopicity) of sodium ibuprofen forms. The format is physicochemical.

`CC(C)Cc1ccc(C(C)C(=O)O)cc1.[Na]` (centres unmarked) [water free sodium ibuprofen, sodium ibuprofen]: the water taken up result (relative humidity 25% RH, spontaneous) is reported as “up to 13.6 % by weight”.

`CC(C)Cc1ccc(C(C)C(=O)O)cc1.O.[Na]` (centres unmarked) [sodium ibuprofen hydrate]: the “additional water uptake on open storage” value (open storage over 6 months at 40° C. and 75% RH, water content 13-14% by weight) was “did not take up additional water”.
